# Data taken from patent US20190125745A1, “TREATMENT AND DIAGNOSIS OF CANCER” (Rgenix, Inc., priority 2014, published 2019).
# Counter-ions that a name gives are not always drawn.
# Assays:
# [1] = tested on: SK-Mel-334.2 primary human melanoma line; assay: Subcutaneous SK-Mel-334.2 tumor growth in immunocompromised mice; type: in vivo; settings: oral
# Description: FIG. 4. Therapeutic LXR Activation Inhibits Melanoma Tumor Growth. […] Representative tumor images shown correspond to tumors extracted at the final day (d12). n=10-18 (A), 8-10 (B). (C-E) Primary tumor growth by 1×10^6 MeWo (C), […] SK-Mel-334.2 (D), and 2×10^6 SK-Mel-2 (E) human melanoma cells subcutaneously injected into immunocompromised mice. […] Tumor images shown correspond to last day of measurements. n=6-34 (C), 8 (D), 5 (E). (F) 5×10^4 B16F10 cells were injected subcutaneously into C57BL/6-WT mice. Upon tumor growth to 150 mm^3, mice were fed continuously with a control chow or a chow containing GW3965 (150 mg/kg), and tumor growth was measured daily. n=6-13. […] Tumor volume was calculated as (small diameter)^2×(large diameter)/2. […] Scale bars, 5 mm (A-D), 50 μm (J, K), 25 μm (L).
# [2] = tested on: RCC human renal cancer cells, PANC1 human pancreatic cancer cells, H460 human lung cancer cells; assay: Trans-well matrigel invasion of renal, pancreatic and lung cancer cells; type: cell-based; settings: 1 μM, 72 hours
# Description: FIG. 17. Treatment with the LXR agonist GW3965 inhibits In Vitro tumor cell invasion of renal cancer, pancreatic cancer, and lung cancer.
# Following serum starvation, the cells were subjected to the trans-well invasion assay using a matrigel invasion chamber system (354480, BD Biosciences). Invasion chambers were pre-equilibrated prior to the assay by adding 0.5 mL of starvation media to the top and bottom wells. Meanwhile, cancer cells were trypsinized and viable cells were counted using trypan blue. Cancer cells were then resuspended at a concentration of 1×10^5 cells/1 mL starvation media, and 0.5 mL of cell suspension, containing 5×10^4 cells, was seeded into each trans-well. The invasion assay was allowed to proceed for 24 hours at 37′C. […] Following fixation, the inserts were washed in PBS and then cut out and mounted onto slides using VectaShield mounting medium containing DAPI nuclear stain (H-1000, Vector Laboratories). The basal side of each insert was imaged using an inverted fluorescence microscope (Zeiss Axiovert 40 CFL) at 5× magnification, and the number of DAPI-positive cells was quantified using ImageJ.
# [3] = tested on: amyloid plaque pathology and memory deficits; settings: oral delivery; cited from earlier work
# [4] = tested on: MeWo human melanoma cells; assay: Tail-vein lung metastatic colonization by MeWo cells in NOD Scid mice; type: in vivo; settings: MeWo cells pre-treated 1 μM, 48 hours
# Description: FIG. 6. LXR Agonism Suppresses Melanoma Metastasis to the Lung and Brain. (A) MeWo cells were pre-treated with DMSO or GW3965 (1 μM) for 48 hours and 4×10^4 cells were intravenously injected via the tail-vein into NOD Scid mice. Lung colonization was monitored by weekly bioluminescence imaging. Representative H&E-stained lungs correspond to the final day (d70) are shown. n=4-5. (B-C) Bioluminescence imaging of lung metastasis by 4×10^4 MeWo cells intravenously injected into NOD Scid mice that were fed a control chow or a chow containing GW3965 (20 mg/kg) or T0901317 (20 mg/kg) starting 10 days prior to cancer cell injection. Representative H&E-stained lungs correspond to final imaging day n=5-6. […] (H) Ex-vivo lung photon flux, determined by bioluminescence imaging, in NOD Scid mice that were administered a control chow or a chow containing GW3965 (100 mg/kg) for 1 month following the excision of size-matched (˜300-mm^3 in volume) subcutaneous melanoma tumors formed by 1×10^6 MeWo melanoma cells. […] Following initiation of metastases, detected by bioluminescence imaging on d42, mice were administered a control diet or a GW3965 diet (100 mg/kg) as indicated, and lung colonization progression was measured weekly. n=6. […]
# [5] = tested on: SK-Mel-239 vemurafenib-resistant clone cells; settings: diet 100 mg/kg
compound,measurement,setting,value
"O=C(O)Cc1cccc(OCCCN(Cc2cccc(C(F)(F)F)c2Cl)CC(c2ccccc2)c2ccccc2)c1 [GW3965 108, 3-[3-[N-(2-Chloro-3-trifluoromethylbenzyl)-(2,2-diphenylethyl)amino]propyloxy] phenylacetic acid hydrochloride]","inhibition of tumor growth, SK-Mel-334.2",[1],73%
same,tumor cell invasion in all three cancer types tested,[2],inhibition
same,amyloid plaque pathology and memory deficits,[3],improve amyloid plaque pathology and memory deficits
same,reduction in metastatic colonization capacity after pre-treatment of cells,[4],more than 50 fold
same,suppression of growth of the SK-Mel-239 vemurafenib-resistant line,[5],72%
